Patent US20250346616A1 (DIZAL (JIANGSU) PHARMACEUTICAL CO., LTD., priority 2022, published 2025)

Legend:
Recombinant ROCK1 = Recombinant ROCK1 (Homo sapiens (Human), UniProt Q13464); experiment: Lance Ultra Kinase Assay, ROCK1 inhibition; type: biochemical; settings: ATP at Km, 30 min pre-incubation, 1 h reaction
Recombinant ROCK2 = Recombinant ROCK2 (Homo sapiens (Human), UniProt O75116); experiment: Lance Ultra Kinase Assay, ROCK2 inhibition; type: biochemical; settings: ATP at Km, 30 min pre-incubation, 1 h reaction
Chain of Recombinant ROCK2 (O75116 whole entry): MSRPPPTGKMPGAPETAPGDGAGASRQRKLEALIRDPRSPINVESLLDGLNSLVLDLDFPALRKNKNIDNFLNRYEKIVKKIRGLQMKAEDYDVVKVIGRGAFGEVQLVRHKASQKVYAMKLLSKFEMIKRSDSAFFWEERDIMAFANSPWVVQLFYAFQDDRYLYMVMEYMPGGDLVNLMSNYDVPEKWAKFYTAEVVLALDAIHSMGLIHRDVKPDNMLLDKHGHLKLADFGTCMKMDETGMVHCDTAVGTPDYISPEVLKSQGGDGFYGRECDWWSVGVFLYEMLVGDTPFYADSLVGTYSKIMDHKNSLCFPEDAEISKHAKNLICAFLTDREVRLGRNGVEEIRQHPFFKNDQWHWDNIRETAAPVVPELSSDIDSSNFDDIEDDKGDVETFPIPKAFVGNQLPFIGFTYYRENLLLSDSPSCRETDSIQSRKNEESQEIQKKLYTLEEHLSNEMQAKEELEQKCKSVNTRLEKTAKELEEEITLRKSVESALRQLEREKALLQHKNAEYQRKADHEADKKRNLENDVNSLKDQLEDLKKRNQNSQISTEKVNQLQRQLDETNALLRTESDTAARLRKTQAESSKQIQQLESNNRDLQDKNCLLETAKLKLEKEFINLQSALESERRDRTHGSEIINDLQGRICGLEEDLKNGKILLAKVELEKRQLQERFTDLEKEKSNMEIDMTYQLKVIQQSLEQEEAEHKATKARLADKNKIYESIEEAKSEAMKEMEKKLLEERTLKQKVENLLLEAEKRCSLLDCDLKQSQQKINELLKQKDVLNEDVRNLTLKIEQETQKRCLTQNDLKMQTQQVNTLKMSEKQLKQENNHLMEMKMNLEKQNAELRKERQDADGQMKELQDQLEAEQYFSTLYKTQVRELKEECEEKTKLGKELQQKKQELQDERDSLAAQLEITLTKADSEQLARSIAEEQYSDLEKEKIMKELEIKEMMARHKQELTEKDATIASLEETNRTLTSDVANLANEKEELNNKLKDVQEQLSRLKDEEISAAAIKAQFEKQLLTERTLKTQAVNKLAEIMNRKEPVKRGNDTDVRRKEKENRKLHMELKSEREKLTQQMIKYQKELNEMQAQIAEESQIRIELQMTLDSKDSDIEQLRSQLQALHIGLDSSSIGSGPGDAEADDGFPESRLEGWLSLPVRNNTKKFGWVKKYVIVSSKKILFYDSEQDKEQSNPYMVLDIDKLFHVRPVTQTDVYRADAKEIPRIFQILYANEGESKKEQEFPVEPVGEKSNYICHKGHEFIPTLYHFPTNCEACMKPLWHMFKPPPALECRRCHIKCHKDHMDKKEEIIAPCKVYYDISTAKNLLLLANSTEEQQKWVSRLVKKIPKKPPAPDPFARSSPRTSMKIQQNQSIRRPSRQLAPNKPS
Procedure: The inhibition potency of compounds against these enzymes was assessed using Lance Ultra Kinase Assay. In brief, recombinant kinases were pre-incubated in the presence or absence of compound at room temperature for 30 minutes. The reaction was initiated by the addition of the ATP (Km) and substrate peptide which could be phosphorylated by kinases in the reaction. After 1 h incubation, the reaction was stopped by the addition of the detection reagent mix containing EDTA. The fluorescence was measured at 615 nm and 665 nm, respectively with excitation wavelength at 320 nm. The calculated signal ratio of 665 nm/615 nm is proportional to the kinase activity.

Chain of Recombinant ROCK1 (Q13464 whole entry): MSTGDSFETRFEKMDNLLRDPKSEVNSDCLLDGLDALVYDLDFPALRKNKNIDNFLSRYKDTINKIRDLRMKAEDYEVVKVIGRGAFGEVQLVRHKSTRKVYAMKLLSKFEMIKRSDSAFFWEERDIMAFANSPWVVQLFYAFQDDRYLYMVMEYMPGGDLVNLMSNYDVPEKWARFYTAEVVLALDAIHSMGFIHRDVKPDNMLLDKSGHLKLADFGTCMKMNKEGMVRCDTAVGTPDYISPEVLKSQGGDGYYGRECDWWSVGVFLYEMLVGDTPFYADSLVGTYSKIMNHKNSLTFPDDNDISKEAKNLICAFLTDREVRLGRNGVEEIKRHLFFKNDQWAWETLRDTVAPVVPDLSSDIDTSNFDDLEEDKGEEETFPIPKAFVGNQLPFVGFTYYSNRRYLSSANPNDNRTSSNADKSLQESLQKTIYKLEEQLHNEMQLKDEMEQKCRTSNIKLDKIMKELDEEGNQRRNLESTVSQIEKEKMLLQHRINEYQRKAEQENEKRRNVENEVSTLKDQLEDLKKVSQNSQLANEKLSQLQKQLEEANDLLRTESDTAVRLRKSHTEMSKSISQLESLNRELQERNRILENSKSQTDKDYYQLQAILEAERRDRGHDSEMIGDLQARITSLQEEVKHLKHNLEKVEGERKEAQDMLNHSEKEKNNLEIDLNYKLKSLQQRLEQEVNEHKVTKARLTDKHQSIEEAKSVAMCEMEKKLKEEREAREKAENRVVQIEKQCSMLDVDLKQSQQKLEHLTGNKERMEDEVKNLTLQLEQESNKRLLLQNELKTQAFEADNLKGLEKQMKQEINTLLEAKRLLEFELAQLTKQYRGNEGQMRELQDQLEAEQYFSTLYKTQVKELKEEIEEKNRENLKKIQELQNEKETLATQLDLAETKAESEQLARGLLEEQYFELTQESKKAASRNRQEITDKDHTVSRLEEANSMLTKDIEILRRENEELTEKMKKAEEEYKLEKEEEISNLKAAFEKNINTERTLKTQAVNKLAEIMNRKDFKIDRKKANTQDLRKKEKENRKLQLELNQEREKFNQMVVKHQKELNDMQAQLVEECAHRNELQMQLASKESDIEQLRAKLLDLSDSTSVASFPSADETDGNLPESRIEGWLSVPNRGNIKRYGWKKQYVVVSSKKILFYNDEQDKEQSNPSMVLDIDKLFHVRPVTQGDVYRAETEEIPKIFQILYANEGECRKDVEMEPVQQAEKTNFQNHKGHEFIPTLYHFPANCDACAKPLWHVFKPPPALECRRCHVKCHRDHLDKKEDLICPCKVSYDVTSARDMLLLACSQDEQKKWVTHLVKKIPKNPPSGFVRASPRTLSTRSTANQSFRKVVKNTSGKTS

**Q.** For `CN1CCN(C(C(=O)Nc2cccc3c(-c4cn[nH]c4)c[nH]c23)C2CCCCC2)CC1` (racemic) [Example 129, 2-cyclohexyl-2-(4-methylpiperazin-1-yl)-N-[3-(1H-pyrazol-4-yl)-1H-indol-7-yl]acetamide], which IC50 (Recombinant ROCK1) is on record?
**A.** 1.7 nM

**Q.** And the IC50 (Recombinant ROCK2)?
**A.** 1.7 nM

**Q.** With `COc1cccc(C(NC(=O)c2cccc3c(-c4cn[nH]c4)c[nH]c23)C2CCN(C)CC2)c1` (single isomer, unassigned) [Example 141, N-((3-methoxyphenyl) (1-methylpiperidin-4-yl)methyl)-3-(1H-pyrazol-4-yl)-1H-indole-7-carboxamide] as the compound, how does the IC50 (Recombinant ROCK1) read?
**A.** 331 nM

**Q.** And the IC50 (Recombinant ROCK2)?
**A.** 163 nM

**Q.** For `COc1cccc(C(CN2CCN(C)CC2)C(=O)Nc2cccc3c(-c4cn[nH]c4)c[nH]c23)c1` (single isomer, unassigned) [Example 36, N-(3-(1H-pyrazol-4-yl)-1H-indol-7-yl)-2-(3-methoxyphenyl)-3-(4-methylpiperazin-1-yl)propanamide], which IC50 (Recombinant ROCK1) is on record?
**A.** 321 nM

**Q.** And the IC50 (Recombinant ROCK2)?
**A.** 174 nM

**Q.** Which IC50 (Recombinant ROCK1) does the source give for `NCC(Cc1ccccc1)NC(=O)c1cccc2c(-c3cn[nH]c3)c[nH]c12` (racemic) [Example 147, N-(1-amino-3-phenylpropan-2-yl)-3-(1H-pyrazol-4-yl)-1H-indole-7-carboxamide] here?
**A.** 0.88 nM

**Q.** And the IC50 (Recombinant ROCK2)?
**A.** 0.4 nM

**Q.** How did the IC50 (Recombinant ROCK1) turn out when `Cc1cccc(C(CN)C(=O)Nc2cccc3c(-c4cn[nH]c4)c[nH]c23)n1` (racemic) [Example 93, 3-amino-2-(6-methylpyridin-2-yl)-N-[3-(1H-pyrazol-4-yl)-1H-indol-7-yl]propanamide] was run?
**A.** 20 nM

**Q.** What about the IC50 (Recombinant ROCK2) of the same compound?
**A.** 13 nM

**Q.** How did the IC50 (Recombinant ROCK1) turn out when `N#Cc1cccc([C@@H](N)C(=O)Nc2cccc3c(-c4cn[nH]c4)c[nH]c23)c1` (single isomer, unassigned) [Example 68, N-(3-(1H-pyrazol-4-yl)-1H-indol-7-yl)-2-amino-2-(3-cyanophenyl) acetamide] was run?
**A.** 4 nM

**Q.** What about the IC50 (Recombinant ROCK2) of the same compound?
**A.** 1.5 nM

**Q.** Which results are given for `COc1cc(C(CN)C(=O)Nc2cccc3c(-c4cn[nH]c4)c[nH]c23)ccc1CO` (racemic) [Example 101, 3-amino-2-[4-(hydroxymethyl)-3-methoxyphenyl]-N-[3-(1H-pyrazol-4-yl)-1H-indol-7-yl]propanamide]?
**A.** IC50 (Recombinant ROCK1): 1.6 nM; IC50 (Recombinant ROCK2): 0.81 nM

**Q.** How did the IC50 (Recombinant ROCK1) turn out when `COc1cncc(C(CN2CCN(C)CC2)C(=O)Nc2cccc3c(-c4cn[nH]c4)c[nH]c23)c1` (single isomer, unassigned) [Example 111, N-(3-(1H-pyrazol-4-yl)-1H-indol-7-yl)-2-(5-methoxypyridin-3-yl)-3-(4-methylpiperazin-1-yl)propanamide] was run?
**A.** 297 nM

**Q.** And the IC50 (Recombinant ROCK2)?
**A.** 167 nM

**Q.** For `NCC(C(=O)Nc1cccc2c(-c3cn[nH]c3)c[nH]c12)c1cccc(N)c1` (racemic) [Example 81, 3-amino-2-(3-aminophenyl)-N-[3-(1H-pyrazol-4-yl)-1H-indol-7-yl]propanamide], which IC50 (Recombinant ROCK1) is on record?
**A.** 1.8 nM

**Q.** What about the IC50 (Recombinant ROCK2) of the same compound?
**A.** 0.91 nM

**Q.** For `NC[C@@H](NC(=O)c1cncc2c(-c3cn[nH]c3)c[nH]c12)c1ccccc1` [Example 148, N-[(1S)-2-amino-1-phenyl-ethyl]-3-(1H-pyrazol-4-yl)-1H-pyrrolo[3,2-c]pyridine-7-carboxamide], which IC50 (Recombinant ROCK1) is on record?
**A.** 21 nM

**Q.** And the IC50 (Recombinant ROCK2)?
**A.** 5.7 nM

**Q.** `NC[C@@H](C(=O)Nc1cccc2c(-c3cn[nH]c3)c[nH]c12)c1ccccc1` [Example 15, (S)—N-(3-(1H-pyrazol-4-yl)-1H-indol-7-yl)-3-amino-2-phenylpropanamide] was tested. Which IC50 (Recombinant ROCK1) did it give?
**A.** 1.4 nM

**Q.** What does the source list for `N#Cc1cccc([C@H](N)C(=O)Nc2cccc3c(-c4cn[nH]c4)c[nH]c23)c1` (single isomer, unassigned) [Example 69, N-(3-(1H-pyrazol-4-yl)-1H-indol-7-yl)-2-amino-2-(3-cyanophenyl) acetamide]?
**A.** IC50 (Recombinant ROCK1): 21 nM; IC50 (Recombinant ROCK2): 9.2 nM

**Q.** `N[C@@H](Cc1c[nH]cn1)C(=O)Nc1cccc2c(-c3cn[nH]c3)c[nH]c12` [Example 108, (2S)-2-amino-3-(1H-imidazol-4-yl)-N-[3-(1H-pyrazol-4-yl)-1H-indol-7-yl]propanamide] was tested. Which IC50 (Recombinant ROCK1) did it give?
**A.** 98 nM

**Q.** `N[C@@H](Cc1c[nH]c2ccccc12)C(=O)Nc1cccc2c(-c3cn[nH]c3)c[nH]c12` [Example 109, (2S)-2-amino-3-(1H-indol-3-yl)-N-[3-(1H-pyrazol-4-yl)-1H-indol-7-yl]propanamide] was tested. Which IC50 (Recombinant ROCK1) did it give?
**A.** 15 nM

**Q.** And the IC50 (Recombinant ROCK2)?
**A.** 11 nM

**Q.** Which IC50 (Recombinant ROCK1) does the source give for `COc1cncc(C(CN)C(=O)Nc2cccc3c(-c4cn[nH]c4)c[nH]c23)c1` (racemic) [Example 102, 3-amino-2-(5-methoxypyridin-3-yl)-N-[3-(1H-pyrazol-4-yl)-1H-indol-7-yl]propanamide] here?
**A.** 1.3 nM

**Q.** What about the IC50 (Recombinant ROCK2) of the same compound?
**A.** 0.56 nM

**Q.** Which results are given for `N#Cc1cccc(C(CN)C(=O)Nc2cccc3c(-c4cn[nH]c4)c[nH]c23)c1` (single isomer, unassigned) [Example 21, N-(3-(1H-pyrazol-4-yl)-1H-indol-7-yl)-3-amino-2-(3-cyanophenyl)propanamide]?
**A.** IC50 (Recombinant ROCK1): 125 nM; IC50 (Recombinant ROCK2): 70 nM

**Q.** Which IC50 (Recombinant ROCK1) does the source give for `CN1CCN(CC(C(=O)Nc2cccc3c(-c4cn[nH]c4)c[nH]c23)c2cccnc2)CC1` (single isomer, unassigned) [Example 66, N-(3-(1H-pyrazol-4-yl)-1H-indol-7-yl)-3-(4-methylpiperazin-1-yl)-2-(pyridin-3-yl)propanamide] here?
**A.** 604 nM

**Q.** What about the IC50 (Recombinant ROCK2) of the same compound?
**A.** 310 nM

**Q.** How did the IC50 (Recombinant ROCK1) turn out when `NCC(C(=O)Nc1cccc2c(-c3cn[nH]c3)c[nH]c12)c1cccc(C(=O)O)c1` (racemic) [Example 70, 3-(2-amino-1-{[3-(1H-pyrazol-4-yl)-1H-indol-7-yl]carbamoyl}ethyl)benzoic acid] was run?
**A.** 2.2 nM

**Q.** What about the IC50 (Recombinant ROCK2) of the same compound?
**A.** 0.6 nM

**Q.** What does the source list for `Cc1ccc(C(=O)OCc2ccc(C(CN)C(=O)Nc3cccc4c(-c5cn[nH]c5)c[nH]c34)cc2)c(C)c1` (single isomer, unassigned) [Example 5]?
**A.** IC50 (Recombinant ROCK1): 8 nM; IC50 (Recombinant ROCK2): 4.3 nM

**Q.** With `CC(N)(C(=O)Nc1cccc2c(-c3cn[nH]c3)c[nH]c12)c1ccccc1` (racemic) [Example 107, 2-amino-2-phenyl-N-[3-(1H-pyrazol-4-yl)-1H-indol-7-yl]propanamide] as the compound, how does the IC50 (Recombinant ROCK1) read?
**A.** 6 nM

**Q.** And the IC50 (Recombinant ROCK2)?
**A.** 3.7 nM

**Q.** How did the IC50 (Recombinant ROCK1) turn out when `COc1cccc(C(CN2CCN(C)CC2)C(=O)Nc2cccc3c(-c4cn[nH]c4)c[nH]c23)c1` (single isomer, unassigned) [Example 35, N-(3-(1H-pyrazol-4-yl)-1H-indol-7-yl)-2-(3-methoxyphenyl)-3-(4-methylpiperazin-1-yl)propanamide] was run?
**A.** 1.8 nM

**Q.** And the IC50 (Recombinant ROCK2)?
**A.** 0.76 nM

**Q.** What does the source list for `NCC(NC(=O)c1cccc2c(-c3cn[nH]c3)c[nH]c12)c1ccc(CO)cc1` (racemic) [Example 146, N-(2-amino-1-(4-(hydroxymethyl)phenyl)ethyl)-3-(1H-pyrazol-4-yl)-1H-indole-7-carboxamide]?
**A.** IC50 (Recombinant ROCK1): 18 nM; IC50 (Recombinant ROCK2): 4.9 nM

**Q.** `O=C(Nc1cccc2c(-c3cn[nH]c3)c[nH]c12)[C@@H]1CCCN1` [Example 128, (2S)-N-[3-(1H-pyrazol-4-yl)-1H-indol-7-yl]pyrrolidine-2-carboxamide] was tested. Which IC50 (Recombinant ROCK1) did it give?
**A.** 111 nM

**Q.** Which results are given for `CN1CCC(C(C(=O)Nc2cccc3c(-c4cn[nH]c4)c[nH]c23)c2ccccc2)CC1` (single isomer, unassigned) [Example 44, N-(3-(1H-pyrazol-4-yl)-1H-indol-7-yl)-2-(1-methylpiperidin-4-yl)-2-phenylacetamide]?
**A.** IC50 (Recombinant ROCK1): 111 nM; IC50 (Recombinant ROCK2): 70 nM

**Q.** What does the source list for `NCC(NC(=O)c1cccc2c(-c3cn[nH]c3)c[nH]c12)c1ccccc1` (racemic) [Example 134, N-(2-amino-1-phenylethyl)-3-(1H-pyrazol-4-yl)-1H-indole-7-carboxamide]?
**A.** IC50 (Recombinant ROCK1): 2.6 nM; IC50 (Recombinant ROCK2): 0.88 nM

**Q.** For `NCC(C(=O)Nc1cccc2c(-c3cn[nH]c3)c[nH]c12)c1ccc(CO)nc1` (single isomer, unassigned) [Example 61, N-(3-(1H-pyrazol-4-yl)-1H-indol-7-yl)-3-amino-2-(6-(hydroxymethyl)pyridin-3-yl)propanamide], which IC50 (Recombinant ROCK1) is on record?
**A.** 26 nM

**Q.** And the IC50 (Recombinant ROCK2)?
**A.** 8.9 nM

**Q.** Which IC50 (Recombinant ROCK1) does the source give for `NCC(C(=O)Nc1cccc2c(-c3cn[nH]c3)c[nH]c12)c1cccc(CO)c1` (racemic) [Example 75, 3-amino-2-[3-(hydroxymethyl)phenyl]-N-[3-(1H-pyrazol-4-yl)-1H-indol-7-yl]propanamide] here?
**A.** 204 nM

**Q.** And the IC50 (Recombinant ROCK2)?
**A.** 71 nM

**Q.** For `N[C@H](Cc1ccccc1)C(=O)Nc1cccc2c(-c3cn[nH]c3)c[nH]c12` [Example 126, (R)-N-(3-(1H-pyrazol-4-yl)-1H-indol-7-yl)-2-amino-3-phenylpropanamide], which IC50 (Recombinant ROCK1) is on record?
**A.** 6.3 nM

**Q.** Which IC50 (Recombinant ROCK1) does the source give for `NC[C@@H](C(=O)Nc1ncnc2c(-c3cn[nH]c3)c[nH]c12)c1ccccc1` [Example 155, (2S)-3-amino-2-phenyl-N-[7-(1H-pyrazol-4-yl)-5H-pyrrolo[3,2-d]pyrimidin-4-yl]propanamide] here?
**A.** 0.96 nM

**Q.** How did the IC50 (Recombinant ROCK1) turn out when `NC[C@H](C(=O)Nc1cccc2c(-c3cn[nH]c3)c[nH]c12)c1ccccc1` [Example 14, (R)-N-(3-(1H-pyrazol-4-yl)-1H-indol-7-yl)-3-amino-2-phenylpropanamide] was run?
**A.** 2.2 nM

**Q.** How did the IC50 (Recombinant ROCK1) turn out when `Cc1n[nH]c(C)c1-c1c[nH]c2c(NC(=O)[C@H](CN)c3ccccc3)cccc12` [Example 56, (2S)-3-amino-N-[3-(3,5-dimethyl-1H-pyrazol-4-yl)-1H-indol-7-yl]-2-phenyl-propanamide] was run?
**A.** 1190 nM

**Q.** With `N[C@@H](C(=O)Nc1cccc2c(-c3cn[nH]c3)c[nH]c12)c1ccccc1` [Example 8, (2R)-2-amino-2-phenyl-N-[3-(1H-pyrazol-4-yl)-1H-indol-7-yl]acetamide] as the compound, how does the IC50 (Recombinant ROCK1) read?
**A.** 20 nM

**Q.** How did the IC50 (Recombinant ROCK1) turn out when `Cc1n[nH]cc1-c1c[nH]c2c(NC(=O)[C@H](CN)c3ccccc3)cccc12` [Example 55, (S)-3-amino-N-(3-(3-methyl-1H-pyrazol-4-yl)-1H-indol-7-yl)-2-phenylpropanamide] was run?
**A.** 2.9 nM

**Q.** With `COC[C@H](C(=O)Nc1cccc2c(-c3cn[nH]c3)c[nH]c12)N1CCN(C)CC1` [Example 121, (2R)-3-methoxy-2-(4-methylpiperazin-1-yl)-N-[3-(1H-pyrazol-4-yl)-1H-indol-7-yl]propanamide] as the compound, how does the IC50 (Recombinant ROCK1) read?
**A.** 75 nM

**Q.** For `NC[C@@H](C(=O)Nc1cccc2c(-c3c[nH]nc3F)c[nH]c12)c1ccccc1` [Example 57, (S)-3-amino-N-(3-(3-fluoro-1H-pyrazol-4-yl)-1H-indol-7-yl)-2-phenylpropanamide], which IC50 (Recombinant ROCK1) is on record?
**A.** 2.7 nM
